Experimental data from publication PMC7045704 (Biochemistry, 2019).
Like-named read-outs stand apart in the source and are kept apart here.

Target: MhuD (Mycobacterium tuberculosis, UniProt P9WKH3)
Assay: biochemical
Assay type: binding

Sequence of MhuD (P9WKH3 whole entry): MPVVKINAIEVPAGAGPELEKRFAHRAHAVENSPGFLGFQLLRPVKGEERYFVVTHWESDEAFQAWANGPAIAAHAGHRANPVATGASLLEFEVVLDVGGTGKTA

Row | SMILES | Kd [nM] | Kd (read-out: αBV Kd) [nM]
1 | C=CC1=C(C)C2=Cc3c(C=C)c(C)c4[n]3[Fe][n]3c(c(C)c(CCC(=O)O)c3=CC3=NC(=C4)C(C)=C3CCC(=O)O)=CC1=N2 [heme] | 6 ± 2.9 | 
2 | C=CC1=C(C)/C(=C/c2[nH]c(/C=C3N=C(/C=C4\NC(=O)C(C)=C4C=C)C(C)=C\3CCC(=O)O)c(CCC(=O)O)c2C)NC1=O [αBV, biliverdin IXα] |  | 36.4 ± 2.1
